Assay results published in BindingDB's records for PubMed 1738111 (University of Texas, 1992).
pKi: −log10 of the molar value.

Biological target: 5-hydroxytryptamine receptor 1B (Rattus norvegicus, UniProt P28564)
Sequence (P28564 whole entry): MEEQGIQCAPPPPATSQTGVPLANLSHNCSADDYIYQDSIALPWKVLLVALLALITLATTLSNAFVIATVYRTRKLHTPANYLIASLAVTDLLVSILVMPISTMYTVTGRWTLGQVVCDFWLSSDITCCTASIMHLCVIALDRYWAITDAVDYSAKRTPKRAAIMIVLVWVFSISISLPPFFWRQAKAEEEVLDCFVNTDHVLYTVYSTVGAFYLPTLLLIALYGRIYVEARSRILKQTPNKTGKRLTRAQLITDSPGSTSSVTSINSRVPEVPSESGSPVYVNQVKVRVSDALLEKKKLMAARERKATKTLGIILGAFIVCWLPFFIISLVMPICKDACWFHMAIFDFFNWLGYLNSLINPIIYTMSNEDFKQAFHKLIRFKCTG

NCCc1c[nH]c2ccc(C(N)=O)cc12 [[3H]-5-carboxamidotryptamine]
pKi: 8.40

Clc1cccc(N2CCNCC2)c1 [mCPP]
pKi: 7.02

Clc1cccc(Cl)c1N=C1NCCN1 [2-(2,6-dichloroanilino)-2-imidazoline]
pKi: < 5.00

CC[C@@H](CO)NC(=O)[C@@H]1C=C2c3cccc4c3c(cn4C)C[C@H]2N(C)C1
pKi: 6.41

CN1CCN(c2nc3cc(C(F)(F)F)ccc3n3cccc23)CC1 [CAS_109028-10-6]
pKi: 7.49

O=C(CCCN1CCC2(CC1)C(=O)NCN2c1ccccc1)c1ccc(F)cc1 [8-[4-(4-fluorophenyl)-4-oxidanylidene-butyl]-1-phenyl-1,3,8-triazaspiro[4.5]decan-4-one]
pKi: < 5.00

c1ccc2nc(N3CCNCC3)ccc2c1 [2-Piperazin-1-yl-quinoline (Quipazine)]
pKi: 6.60

CSc1ccc2c(c1)C(N1CCN(C)CC1)Cc1ccccc1S2 (stereo unspecified) [methanesulfonic acid;1-methyl-4-(3-methylsulfanyl-5,6-dihydrobenzo[b][1]benzothiepin-5-yl)piperazine]
pKi: 7.02

FC(F)(F)c1cccc(N2CCNCC2)c1 [TFMPP]
pKi: 7.08

CN1C2CCC1CC(OC(=O)c1cc(Cl)cc(Cl)c1)C2 (stereo unspecified) [MDL 72222]
pKi: < 5.00

O=C(c1ccc(F)cc1)C1CCN(CCn2c(=O)[nH]c3ccccc3c2=O)CC1 [3-(2-{4-[(4-fluorophenyl)carbonyl]piperidin-1-yl}ethyl)-1,2,3,4-tetrahydroquinazoline-2,4-dione]
pKi: < 5.00

Cc1ccc(N(CC2=NCCN2)c2cccc(O)c2)cc1 [SMR000059054]
pKi: 6.06

CN1C2CCC1CC(OC(=O)c1c[nH]c3ccccc13)C2 (stereo unspecified)
pKi: < 5.00

CN1C[C@@H](NS(=O)(=O)N(C)C)C[C@@H]2c3cccc4c3c(cn4C)C[C@H]21 [MESULERGINE]
pKi: < 5.00

NCC(O)c1ccc(O)c(O)c1 (stereo not drawn) [Noradrenaline,(+)]
pKi: < 5.00

COc1cc2nc(N3CCN(C(=O)c4ccco4)CC3)nc(N)c2cc1OC [[3H]-Minipress]
pKi: 6.54
